# Data from patent US7060477B2, “Epoxide hydrolases of aspergillus origin” (Centre National de la Recherche Scientifique, priority 1999, dated 2006).
# Like-named read-outs stand apart in the source and are kept apart here.
# Tests used:
# [1] = tested on: epoxide hydrolase from Aspergillus niger; assay: Effect of selective reagents and co-solvents on epoxide hydrolase activity (pNSO as substrate, diol formed by HPLC); format: biochemical; details: for effect of co-solvent on the activity of epoxide hydrolase (opening of the epoxide): organic co-solvent for dissolving the substrate
# Procedure: (§1) Add 50 μL of the preparation containing the enzyme to 410 μL of 0.1 M sodium phosphate buffer pH 7.0 (buffer B) and pre-incubate the mixture at 35° C. for 2 min. Then add 40 μL of a 50 mM solution of racemic pNSO in DMF (final pNSO concentration: 4 mM).
# (§2) After 10 min of incubation, stop the reaction by adding 1 mL of dichloromethane. Stir the mixture vigorously so as to extract both the substrate and the diol produced. The quantity of diol formed is determined after separation on a column of silica by HPLC (high-pressure liquid chromatography) (Waters Associates, USA) as described previously (Nellaiah et al. 1996).
# One unit of epoxide hydrolase represents the quantity of enzyme that catalyses the formation of one μmol of diol per minute in the above conditions. After incubation with raw extracts, the quantity of diol formed increases linearly with time for at least 30 min, and the reaction rate is proportional to the concentration of the enzyme in the range of 0.01 to 1.2 units (Nellaiah et al., 1996).
# [2] = Isoelectric point by electrofocusing; format: physicochemical, Aspergillus niger; details: pH gradient 3 to 9, silver nitrate staining
# Procedure: SDS-PAGE electrophoresis is carried out on a plate with thickness of 1 mm containing a resolving gel (10% of acrylamide) and a concentrating gel (4% of acrylamide) at pH 8.8 in the presence of 0.1% of sodium dodecyl sulphate (SDS) (Laemmli, 1970). The samples are dissolved in a Tris-HCl buffer (62.5 mM, […]) containing 1% (w/v) of SDS, 10% (v/v) of glycerol and 2% (v/v) of β-mercaptoethanol, and are heated at 100° C. for 2 minutes. The proteins are stained with 0.1% (w/v) of Coomassie blue. Migrations on non-denaturing PAGE gels were effected in the same way except that no β-mercaptoethanol was added to the resolving buffer, and that the samples were not heated. Electrofocusing was carried out with a pH gradient of 3–9 by means of the Pharmacia LKB “Phastsystem” system and standard Pharmacia procedures. The proteins were stained with silver nitrate.
# [3] = Hydrolysis of pNSO by the purified EH: pH/temperature profile, enantioselectivity, regioselectivity; format: biochemical, Aspergillus niger; set-up: activation energy: unit not given here
# Procedure: as §1, §2
# The incubations with H2[^18O] are carried out in 1 mL flasks containing 180 μL of H2[^18O] buffer B, 20 μL of the purified epoxide hydrolase and 20 μL of substrate (50 mM in acetonitrile). After 1.5 h of incubation at 25° C. with magnetic stirring (500 rpm) the substrate that remains and the product formed are extracted with 2 mL of dichloromethane. The diol is purified by analytical chromatography on silica (eluent: diethylether). 2 μL of samples are analysed by gas chromatography/mass spectrometry (GC/MS). The diol that remains is converted to the corresponding acetonide by reaction with […] in the presence of p-toluene sulphonic acid. The acetonide is analysed by GC/MS as already described by Audier et al., 1968.
# Reaction in a total volume of 5 mL is carried out at 25° C., with a substrate with a concentration of 4.3 mM with DMSO (20 vol.%) as co-solvent in a 0.1 M sodium phosphate buffer pH 8.0.
# The reaction is started by adding 13 U/L of the purified enzyme. Samples are taken every 30 minutes for quantification of the concentrations of the substrate and of product by HPLC using a reversed-phase column (Nellaiah et al., 1996) and for quantification of the enantiomeric excess of the epoxide and of the diol by gas-phase chromatography (Nellaiah et al., 1996).
# [4] = Enzymatic activity of recombinant epoxide hydrolase and mutants (conversion of R enantiomer of para-nitrostyrene oxide to diol); format: biochemical, Aspergillus niger; details: 4-nitro-styrene oxide hydrolysed
# Procedure: in the Ncol site that contains the starting codon of the pGEF+ vector in the context adapted to a ribosome binding site, upstream of the promoter of the RNA polymerase T7. The resulting plasmid is called pGEF II hereinafter. The PCR fragment AfIII/Eco RI of the EH of Aspergillus is ligated in the Ncol/Eco RI site of pGEF II to produce the pGEF Asp EH″ expression construction. The E. coli strain BL21 (DE 3) (Novagen) is transformed with pGEF Asp EH and put in the LB medium at 30° C. In late exponential phase, induction of expression of the recombinant protein is effected by adding isopropyl-β-thiogalactoside (100 μM). After two hours, the bacteria are collected by centrifugation, resuspended in 0.02 volumes of culture of the STE buffer (Tris-HCl, 10 mM, sodium chloride 100 mM, ethylenediamine tetraacetic acid 1 mM, pH 7.4) and stored at −70° C. Enzymatic activity is determined by converting the R enantiomer of para-nitrostyrene oxide to the corresponding diol. The reaction is carried out at a substrate concentration of 880 μM in 500 μL STE at 37° C. for 30 min, in the presence of 10 μL of acetonitrile which is used as solvent of para-nitrostyrene oxide. […]
# The conversion substrate is quantified by adding 400 μL of supernatant to 800 μL of water and reading the optical density at 277 nm, with the molar extinction coefficient of the product being 9.1×10^3 M^−1 cm^−1. […]
# [5] = cited from earlier work
# [6] = purified EH of Aspergillus niger, pNSO substrate
molecule,measurement,setting,value
O=C([O-])c1cc[c]([Hg][OH])cc1 [4-hydroxy-mercuribenzoate],effect of selective reagent on the activity of the enzyme,[1]; [6],strong inactivation
NC(=O)CI [iodoacetamide],effect of selective reagent on the activity of the enzyme,[1]; [6],strong inactivation
CC(C)=O [acetone],effect of co-solvent on the activity of epoxide hydrolase (opening of the epoxide),[1]; pNSO substrate,strongest activities
O=C(O)CN(CCN(CC(=O)O)CC(=O)O)CC(=O)O [EDTA],effect of selective reagent on the activity of the enzyme,[1],no effect
N[C@@H](CS)C(=O)O [cysteine],effect of selective reagent on the activity of the enzyme,[1]; [6],positive effect
OCCS [β-mercaptoethanol],effect of selective reagent on the activity of the enzyme,[1]; [6],positive effect
CN(C)C=O [DMF],effect of co-solvent on the activity of epoxide hydrolase (opening of the epoxide),[1]; pNSO substrate,strongest activities
O=C(OO)c1cccc(Cl)c1 [meta-chloroperbenzoic acid],effect of selective reagent on the activity of the enzyme,[1]; [6],strongly inhibit
C1CCOC1 [THF],effect of co-solvent on the activity of epoxide hydrolase (opening of the epoxide),[1]; pNSO substrate,low activity
OO [hydrogen peroxide],effect of selective reagent on the activity of the enzyme,[1]; [6],strongly inhibit
phenylmethane sulphonyl chloride [PMSF],effect of selective reagent on the activity of the enzyme,[1]; [6],no effect
[Cl][Hg][Cl] [HgCl2],effect of selective reagent on the activity of the enzyme,[1]; [6],strong inactivation
"EH from Aspergillus niger: fungal epoxide hydrolase represented by SEQ ID NO: 2, purified from Aspergillus niger LCP521 or recombinant in E. coli (protein, Aspergillus niger) MSAPFAKFPSSASISPNPFTVSIPDEQLDDLKTLVRLSKIAPPTYESLQADGRFGITSEWLTTMREKWLSEFDWRPFEARLNSFPQFTTEIEGLTIHFAALFSEREDAVPIALLHGWPGSFVEFYPILQLFREEYTPETLPFHLVVPSLPGYTFSSGPPLDKDFGLMDNARVVDQLMKDLGFGSGYIIQGGDIGSFVGRLLGVGFDACKAVHLNLCAMRAPPEGPSIESLSAAEKEGIARMEKFMTDGLAYAMEHSTRPSTIGHVLSSSPIALLAWIGEKYLQWVDKPLPSETILEMVSLYWLTESFPRAIHTYRETTPTASAPNGATMLQKELYIHKPFGFSFFPKDLCPVPRSWIATTGNLVFFRDHAEGGHFAALERPRELKTDLTAFVEQVWQK",isoelectric point,[2],4.5
same,pH of maximum activity,[3],7 pH
same,temperature of maximum activity,[3],40 °C
same,regioselectivity of the reaction,"[3]; for the 2 carbon, pNSO",97%
same,activation energy,[3]; from 2 to 40° C.,27
same,ratio of the specific constant (kcat/Km): initial rate of hydrolysis of (R) enantiomer versus (S) enantiomer,[3]; starting from racemic pNSO,55 times
same,specific activity,[4],100 μmol per minute and milligram
"rat microsomal epoxide hydrolase (mEH): rat microsomal epoxide hydrolase, literature comparison enzyme (protein, UniProt P07687 1-455, looked up) Epoxide hydrolase 1: MWLELVLASLLGFVIYWFVSRDKEETLPLGDGWWGPGSKPSAKEDESIRPFKVETSDEEIKDLHQRIDRFRASPPLEGSRFHYGFNSNYMKKVVSYWRNEFDWRKQVEILNQYPHFKTKIEGLDIHFIHVKPPQLPSGRTPKPLLMVHGWPGSFYEFYKIIPLLTDPKSHGLSDEHVFEVICPSIPGYGYSEASSKKGLNSVATARIFYKLMTRLGFQKFYIQGGDWGSLICTNMAQMVPNHVKGLHLNMAFISRSFYTMTPLLGQRFGRFLGYTEKDIELLYPYKEKVFYSIMRESGYLHIQATKPDTVGCALNDSPVGLAAYILEKFSTWTKSEYRELEDGGLERKFSLDDLLVNIMIYWTTGTIVSSQRYYKENLGQGIMVHKHEGMKVFVPTGFSAFPSELLHAPEKWVKVKYPKLISYSYMERGGHFAAFEEPKLLAQDIRKFVSLAELQ",conversion number increased by a factor,[5]; on replacing Glu^404 of the charge relay system with aspartic acid,30
same,specific activity,[5]; styrene oxide and benzo[α]pyrene oxide,about 500 nmol converted per minute and milligram of pure enzyme
